Data taken from US8133847B2, “Pyrido[2,3-B]pyrazine derivatives useful as herbicidal compounds” (Syngenta Limited, priority 2006, dated 2012).

Legend:
Assay type in all cases: in vivo
[1] = tested on: Alopecurus myosuroides (ALOMY); test: Example B3 herbicidal action, post-emergence; details: 1000 g/ha, after 13 days, 100=total damage to plant, 0=no damage to plant
Description: (§1) Seeds of a variety of test species were sown in sterilised compost in small pots. After cultivation for seven days (post-emergence) in controlled conditions in the glasshouse (at 24/16° C., day/night; 14 hours light; 65% humidity) the plants were sprayed with 1 mg of the active ingredient, formulated in 2.5 ml acetone/water (50:50) solution, which is equivalent to 1000 g/ha. Once the foliage was dry, the pots were kept in the glasshouse (at 24/16° C., day/night; 14 hours light; 65% humidity), and were watered twice daily. After 13 days the test was evaluated (100=total damage to plant, 0=no damage to plant).

[2] = tested on: Digitaria sanguinalis (DIGSA); test: Example B3 herbicidal action, post-emergence; details: 1000 g/ha, after 13 days, 100=total damage to plant, 0=no damage to plant
Description: as §1

[3] = tested on: Chenopodium album (CHEAL); test: Example B3 herbicidal action, post-emergence; details: 1000 g/ha, after 13 days, 100=total damage to plant, 0=no damage to plant
Description: as §1

[4] = tested on: Amaranthus retroflexus (AMARE); test: Example B3 herbicidal action, post-emergence; details: 1000 g/ha, after 13 days, 100=total damage to plant, 0=no damage to plant
Description: as §1

[5] = tested on: Echinochloa crusgalli (ECHCG); test: Example B2 herbicidal action, post-emergence, pots in glasshouse; details: Application post-emergence, evaluated after 13 days (100=total damage to plant; 0=no damage to plant)
Description: (§2) Seeds of a variety of test species were sown in standard soil in pots. After 8 days cultivation (post-emergence) under controlled conditions in a glasshouse (at 24/16° C., day/night; 14 hours light; 65% humidity), the plants were sprayed with an aqueous spray solution derived from the formulation of the technical active ingredient in acetone/water (50:50) solution containing 0.5% Tween 20 (polyoxyethylene sorbitan monolaurate, CAS RN 9005-64-5). The test plants were then grown in a glasshouse under controlled conditions in a glasshouse (at 24/16° C., day/night; 14 hours light; 65% humidity) and watered twice daily. After 13 days, the test was evaluated (100=total damage to plant; 0=no damage to plant).

[6] = tested on: Solanum nigrum (SOLNI); test: as above; details: Application post-emergence, evaluated after 13 days
Description: as §2

[7] = tested on: Amaranthus retroflexus (AMARE); test: as above; details: Application post-emergence, evaluated after 13 days (100=total damage to plant; 0=no damage to plant)
Description: as §2

[8] = tested on: Ipomea hederaceae (IPOHE); test: as above; details: Application post-emergence, evaluated after 13 days (100=total damage to plant; 0=no damage to plant)
Description: as §2

[9] = tested on: Setaria faberi (SETFA); test: as above; details: Application post-emergence, evaluated after 13 days (100=total damage to plant; 0=no damage to plant)
Description: as §2

| SMILES | damage to plant, Alopecurus myosuroides (ALOMY) [1] | damage to plant, Digitaria sanguinalis (DIGSA) [2] | damage to plant, Chenopodium album (CHEAL) [3] | damage to plant, Amaranthus retroflexus (AMARE) [4] | damage to plant, Echinochloa crusgalli (ECHCG) [5] | damage to plant, Solanum nigrum (SOLNI) [6] | damage to plant, Amaranthus retroflexus (AMARE) [7] | damage to plant, Ipomea hederaceae (IPOHE) [8] | damage to plant, Setaria faberi (SETFA) [9] |
| --- | --- | --- | --- | --- | --- | --- | --- | --- | --- |
| CCn1c(=O)c(-c2c(Cl)ccc(Cl)c2Cl)c(OC(=O)C(C)C)c2nccnc21 [Compound C107] | 0 | 2 | 10 | 10 |  |  |  |  |  |
| Cc1cccc([N+](=O)[O-])c1-c1c(OC(=O)C(C)(C)C)c2nccnc2n(C)c1=O [Compound C161] | 0 | 5 | 2 | 6 |  |  |  |  |  |
| CCn1c(=O)c(-c2cccc(C(F)(F)F)c2Cl)c(OC(=O)C(C)(C)C)c2nccnc21 [Compound C132] | 0 | 0 | 8 | 10 |  |  |  |  |  |
| CC(=O)Oc1c(-c2ccc(Cl)cc2Cl)c(=O)n(C(C)C)c2nccnc12 [Compound C7] | 0 | 3 | 7 | 9 |  |  |  |  |  |
| CCn1c(=O)c(-c2cc(-c3ccc(Cl)cc3)ccc2C)c(OC(=O)C(C)C)c2nccnc21 [Compound C156] | 8 | 3 | 0 | 0 |  |  |  |  |  |
| CC(C)(C)C(=O)Oc1c(-c2ccc(C(F)(F)F)cc2Br)c(=O)[nH]c2nccnc12 [Compound B54] | 0 | 0 | 8 | 3 |  |  |  |  |  |
| CCn1c(=O)c(-c2cc(F)ccc2Cl)c(OC(=O)C(C)C)c2nccnc21 [Compound C150] |  |  |  |  | 3 | 10 | 10 | 9 | 6 |
| Cn1c(=O)c(-c2cc(F)c(F)cc2Cl)c(OC(=O)C(C)(C)C)c2nccnc21 [Compound C162] |  |  |  |  | 8 | 10 | 9 | 7 | 7 |
| O=c1[nH]c2nccnc2c(O)c1-c1cc(F)c(Cl)cc1Cl [Compound A39] |  |  |  |  | 8 | 6 | 8 | 0 | 7 |
| CCn1c(=O)c(-c2cc(F)ccc2Cl)c(OC(=O)C(C)(C)C)c2nccnc21 [Compound C151] |  |  |  |  | 0 | 6 | 7 | 4 | 0 |
| Cc1cc(C)c(-c2c(O)c3nccnc3n(C)c2=O)c(C)c1 [Compound D7] |  |  |  |  | 10 | 10 | 10 | 9 | 10 |
| Cn1c(=O)c(-c2ccccc2OC(F)F)c(OC(=O)C(C)(C)C)c2nccnc21 [Compound C168] |  |  |  |  | 3 | 8 | 10 | 5 | 2 |
| COc1cccc(-c2c(O)c3nccnc3[nH]c2=O)c1OC [Compound A41] | 3 | 6 | 6 | 0 |  |  |  |  |  |
| O=c1[nH]c2nccnc2c(O)c1-c1cc(F)ccc1Cl [Compound A38] |  |  |  |  | 8 | 9 | 10 | 0 | 9 |
| CC(C)(C)C(=O)Oc1c(-c2cc(F)ccc2Cl)c(=O)[nH]c2nccnc12 [Compound B46] |  |  |  |  | 4 | 10 | 10 | 9 | 6 |
| O=c1[nH]c2nccnc2c(O)c1-c1ccc(C(F)(F)F)cc1Br [Compound A43] | 0 | 0 | 8 | 7 |  |  |  |  |  |
| Cn1c(=O)c(-c2c(F)c([N+](=O)[O-])cc(F)c2Cl)c(OC(=O)C(C)(C)C)c2nccnc21 [Compound C157] | 0 | 0 | 8 | 6 |  |  |  |  |  |
| CC(C)(C)C(=O)Oc1c(-c2c(F)ccc(F)c2Cl)c(=O)n(CC2CCC2)c2nccnc12 [Compound C131] |  |  |  |  | 0 | 2 | 0 | 0 | 0 |
| CC(C)C(=O)Oc1c(-c2cc(F)ccc2Cl)c(=O)[nH]c2nccnc12 [Compound B45] |  |  |  |  | 8 | 9 | 4 | 0 | 8 |
| CCn1c(=O)c(-c2ccc(C(F)(F)F)cc2[N+](=O)[O-])c(OC(=O)C(C)(C)C)c2nccnc21 [Compound C141] | 0 | 0 | 7 | 10 |  |  |  |  |  |
| Cc1cnc2c(OC(=O)C(C)(C)C)c(-c3c(F)ccc(F)c3Cl)c(=O)n(C)c2n1 [Compound C170] |  |  |  |  | 8 | 6 | 8 | 4 | 7 |
| CC(C)(C)C(=O)Oc1c(-c2c(Cl)cc(OC(F)(F)F)cc2Cl)c(=O)[nH]c2nccnc12 [Compound B42] |  |  |  |  | 1 | 5 | 0 | 0 | 8 |
| CCn1c(=O)c(-c2ccccc2OC(F)F)c(OC(=O)C(C)C)c2nccnc21 [Compound C165] |  |  |  |  | 1 | 10 | 9 | 7 | 2 |
| Cn1c(=O)c(-c2cc(F)c(Cl)cc2Cl)c(OC(=O)C(C)(C)C)c2nccnc21 [Compound C149] |  |  |  |  | 3 | 7 | 9 | 5 | 3 |
| Cn1c(=O)c(-c2c(Cl)cc(OC(F)(F)F)cc2Cl)c(OC(=O)C(C)(C)C)c2nccnc21 [Compound C138] |  |  |  |  | 2 | 8 | 8 | 8 | 4 |
